The source of these data is PubChem BioAssay AID2060897 (Molecular Pharmacology Branch, DTP, NCI, 2025).

Broadly, the IC50 is the concentration at which inhibition is half-maximal. By viability, T/C is commonly meant the result in the treated group divided by that in the control group, in per cent.

A value given as a limit tells only on which side of the number the result lay.

The subject of this assay is 966289-007-R4-J1-PDC complex spheroid viability. Put plainly: Anticancer human tumor 966289-007-R4-J1-PDC patient-derived pancreatic adenocarcinoma cell line growth inhibition [RAS]. To be noted: for viability, T/C: stronger effect = lower value. The method in brief: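 Tumour cells grown as complex spheroids with HUVEC endothelial cells and mesenchymal stem cells, treated with RAS pathway inhibitor combinations. Each agent spans half-log steps from near clinical Cmax, or 10 microM where Cmax is unknown.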
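Further: spheroids exposed to agents for one week before readout.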
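Wherever viability, T/C is given: percent viability relative to DMSO vehicle control wells as 100%.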

For `CC(=O)OC12COC1CC(O)C1(C)C(=O)C(O)C3=C(C)C(OC(=O)C(O)C(NC(=O)OC(C)(C)C)c4ccccc4)CC(O)(C(OC(=O)c4ccccc4)C21)C3(C)C` (configuration not stated) + CCn1c(-c2cc(N3CCN(C)CC3)cnc2C(C)OC)c2c3cc(ccc31)-c1csc(n1)CC(NC(=O)C1CC1C)C(=O)N1CCCC(N1)C(=O)OCC(C)(C)C2, the half-inhibitory concentration (IC50) reads like this: (curve of first compound, second compound 0.000949 µM) below 31.6 nM; (curve of first compound, second compound 0.003 µM) below 31.6 nM; (curve of first compound, second compound 0.00949 µM) below 31.6 nM; (curve of first compound, second compound 0.03 µM) below 31.6 nM; (curve of first compound, second compound 0.0949 µM) below 31.6 nM; (curve of first compound, second compound 0.3 µM) below 31.6 nM. The viability, T/C runs as follows: (second compound 0.000949 µM, first compound 0.0316 µM) 6.12%; (second compound 0.000949 µM, first compound 0.1 µM) 13.9%; (second compound 0.000949 µM, first compound 0.316 µM) 13.5%; (second compound 0.000949 µM, first compound 1 µM) 21.5%; (second compound 0.000949 µM, first compound 3.16 µM) 29.3%; (second compound 0.000949 µM, first compound 10 µM) 55%. The viability, T/C was 6.11% (second compound 0.003 µM, first compound 0.0316 µM); 12.1% (second compound 0.003 µM, first compound 0.1 µM); 10.9% (second compound 0.003 µM, first compound 0.316 µM); 19.1% (second compound 0.003 µM, first compound 1 µM); 35.8% (second compound 0.003 µM, first compound 3.16 µM); 60.8% (second compound 0.003 µM, first compound 10 µM). Moreover, the viability, T/C runs as follows: (second compound 0.00949 µM, first compound 0.0316 µM) 6.07%; (second compound 0.00949 µM, first compound 0.1 µM) 11.1%; (second compound 0.00949 µM, first compound 0.316 µM) 13.5%; (second compound 0.00949 µM, first compound 1 µM) 16.5%; (second compound 0.00949 µM, first compound 3.16 µM) 42.2%; (second compound 0.00949 µM, first compound 10 µM) 54.5%. The viability, T/C (second compound 0.03 µM, first compound 0.0316 µM) was 7.27%; the viability, T/C (second compound 0.03 µM, first compound 0.1 µM) is 8.94%; the viability, T/C (second compound 0.03 µM, first compound 0.316 µM) is 16.7%; the viability, T/C (second compound 0.03 µM, first compound 1 µM) is 20.9%; the viability, T/C (second compound 0.03 µM, first compound 3.16 µM) was 40.2%; the viability, T/C (second compound 0.03 µM, first compound 10 µM) is 60.1%. Further, the viability, T/C runs as follows: (second compound 0.0949 µM, first compound 0.0316 µM) 5.65%; (second compound 0.0949 µM, first compound 0.1 µM) 11.1%; (second compound 0.0949 µM, first compound 0.316 µM) 13.4%; (second compound 0.0949 µM, first compound 1 µM) 19.3%; (second compound 0.0949 µM, first compound 3.16 µM) 51.7%; (second compound 0.0949 µM, first compound 10 µM) 59.8%. For the same compound, the viability, T/C reads like this: (second compound 0.3 µM, first compound 0.0316 µM) 7.9%; (second compound 0.3 µM, first compound 0.1 µM) 14.3%; (second compound 0.3 µM, first compound 0.316 µM) 18.4%; (second compound 0.3 µM, first compound 1 µM) 23.5%; (second compound 0.3 µM, first compound 3.16 µM) 41.7%; (second compound 0.3 µM, first compound 10 µM) 56%.

On to `CCC(CC)c1cc(NC2CCC(N)C2)n2nccc2n1` (configuration not stated), for which the viability, T/C reads like this: (compound 0.1 µM) 92.7% [middle of 4 runs]; (compound 0.316 µM) 109% [middle of 4 runs]; (compound 3.16 µM) 2.28% [middle of 4 runs]; (compound 10 µM) 2.13% [middle of 4 runs]. Also, the IC50 (curve of compound) was 1.86 µM [middle of 4 runs].
